Results as given in ChEMBL document CHEMBL1145595, “5-Substituted isophthalamides as insulin receptor sensitizers” (Bioorg Med Chem Lett, 2008).
Active and inactive are the calls of the source. No cut-off for these calls is given here.

System: 3T3-L1
Assay: (§1) Activity at Insulin receptor in mouse 3T3-L1 cells assessed as glucose uptake
Type: cell-based
For `O=C(Nc1cccc2cc(S(=O)(=O)O)ccc12)c1cc(NC(=O)C2CCCCC2)cc(C(=O)Nc2cccc3cc(S(=O)(=O)O)ccc23)c1`, the Activity was “inactive”. In the case of `O=C(Nc1cccc2cc(S(=O)(=O)O)ccc12)c1cc(NS(=O)(=O)c2ccc(F)cc2)cc(C(=O)Nc2cccc3cc(S(=O)(=O)O)ccc23)c1`, the Activity is reported as “inactive”. In the case of `O=C(Nc1cccc(Cl)c1)Nc1cc(C(=O)Nc2cccc3cc(S(=O)(=O)O)ccc23)cc(C(=O)Nc2cccc3cc(S(=O)(=O)O)ccc23)c1`, the Activity is reported as “inactive”. For `O=C(Nc1cc(C(=O)Nc2cccc3cc(S(=O)(=O)O)ccc23)cc(C(=O)Nc2cccc3cc(S(=O)(=O)O)ccc23)c1)c1ccc([N+](=O)[O-])cc1`, the Activity was “inactive”. With `O=C(Nc1cccc2cc(S(=O)(=O)O)ccc12)c1cc(NC(=O)c2ccco2)cc(C(=O)Nc2cccc3cc(S(=O)(=O)O)ccc23)c1` the Activity was “inactive”. In the case of `O=C(Nc1cc(C(=O)Nc2cccc3cc(S(=O)(=O)O)ccc23)cc(C(=O)Nc2cccc3cc(S(=O)(=O)O)ccc23)c1)c1ccncc1`, the Activity is reported as “inactive”. With `O=C(Cc1cccc(Cl)c1)Nc1cc(C(=O)Nc2cccc3cc(S(=O)(=O)O)ccc23)cc(C(=O)Nc2cccc3cc(S(=O)(=O)O)ccc23)c1` the Activity was “inactive”. In the case of `O=C(Nc1cccc2cc(S(=O)(=O)O)ccc12)c1cc(NC(=O)c2cnc3ccccc3n2)cc(C(=O)Nc2cccc3cc(S(=O)(=O)O)ccc23)c1`, the Activity is reported as “inactive”. For `O=C(Nc1cc(C(=O)Nc2cccc3cc(S(=O)(=O)O)ccc23)cc(C(=O)Nc2cccc3cc(S(=O)(=O)O)ccc23)c1)c1cccnc1`, the Activity was “inactive”.

System: not listed separately
Assay: as §1
Type: cell-based
`O=C(Nc1cc(C(=O)Nc2cccc3cc(S(=O)(=O)O)ccc23)cc(C(=O)Nc2cccc3cc(S(=O)(=O)O)ccc23)c1)c1cccc(F)c1` gave an EC50 of 19.4 µM. With `O=C(Nc1cc(C(=O)Nc2cccc3cc(S(=O)(=O)O)ccc23)cc(C(=O)Nc2cccc3cc(S(=O)(=O)O)ccc23)c1)c1ccc(Cl)cc1` the EC50 was 72.8 µM. Work on `O=C(Nc1cc(C(=O)Nc2cccc3cc(S(=O)(=O)O)ccc23)cc(C(=O)Nc2cccc3cc(S(=O)(=O)O)ccc23)c1)c1cccc([N+](=O)[O-])c1` yielded an EC50 of 44.5 µM. Work on `O=C(Nc1cc(C(=O)Nc2cccc3cc(O)ccc23)cc(C(=O)Nc2cccc3cc(S(=O)(=O)O)ccc23)c1)c1cccc(Cl)c1` yielded an EC50 of 61.7 µM. With `O=C(Nc1cc(C(=O)Nc2cccc3ccccc23)cc(C(=O)Nc2cccc3cc(S(=O)(=O)O)ccc23)c1)c1cccc(Cl)c1` the EC50 was 66.5 µM. Work on `O=C(Nc1ccc2c(O)c(/N=N/c3ccc(/N=N/c4ccc(S(=O)(=O)O)cc4)cc3S(=O)(=O)O)c(S(=O)(=O)O)cc2c1)Nc1ccc2c(O)cc(S(=O)(=O)O)c(/N=N/c3ccc(/N=N/c4ccc(S(=O)(=O)O)cc4)cc3S(=O)(=O)O)c2c1` yielded an EC50 of 90 µM. `O=C(Nc1cc(C(=O)Nc2cccc3cc(S(=O)(=O)O)ccc23)cc(C(=O)Nc2cccc3cc(S(=O)(=O)O)ccc23)c1)c1ccc(F)cc1` showed an EC50 of 78.5 µM. `O=C(Nc1cccc2cc(S(=O)(=O)O)ccc12)c1cc(C(=O)Nc2cccc3cc(S(=O)(=O)O)ccc23)cc(C(=O)Nc2cccc3cc(S(=O)(=O)O)ccc23)c1` showed an EC50 of 135 µM. For `O=C(Nc1cc(C(=O)Nc2cccc3cc(S(=O)(=O)O)ccc23)cc(C(=O)Nc2cccc3cc(S(=O)(=O)O)ccc23)c1)c1cccc(Cl)c1`, the EC50 was 5.7 µM. In the case of `O=C(Nc1cccc2cc(S(=O)(=O)O)ccc12)c1cc(NC(=O)c2cccc3ccccc23)cc(C(=O)Nc2cccc3cc(S(=O)(=O)O)ccc23)c1`, the EC50 is reported as 12.8 µM. With `O=C(Nc1cc(C(=O)Nc2cccc3cc(S(=O)(=O)O)ccc23)cc(C(=O)Nc2cccc3cc(S(=O)(=O)O)ccc23)c1)c1ccc2ccccc2c1` the EC50 was 3.7 µM.
